Results on one molecule are retold here after ChEMBL document CHEMBL1212695, “An allosteric potentiator of M4 mAChR modulates hippocampal synaptic transmission” (Nat Chem Biol, 2008).

The target of assay [1] is T1, Muscarinic acetylcholine receptor M5 (Rattus norvegicus) (UniProt P08911).
T1 sequence (whole entry): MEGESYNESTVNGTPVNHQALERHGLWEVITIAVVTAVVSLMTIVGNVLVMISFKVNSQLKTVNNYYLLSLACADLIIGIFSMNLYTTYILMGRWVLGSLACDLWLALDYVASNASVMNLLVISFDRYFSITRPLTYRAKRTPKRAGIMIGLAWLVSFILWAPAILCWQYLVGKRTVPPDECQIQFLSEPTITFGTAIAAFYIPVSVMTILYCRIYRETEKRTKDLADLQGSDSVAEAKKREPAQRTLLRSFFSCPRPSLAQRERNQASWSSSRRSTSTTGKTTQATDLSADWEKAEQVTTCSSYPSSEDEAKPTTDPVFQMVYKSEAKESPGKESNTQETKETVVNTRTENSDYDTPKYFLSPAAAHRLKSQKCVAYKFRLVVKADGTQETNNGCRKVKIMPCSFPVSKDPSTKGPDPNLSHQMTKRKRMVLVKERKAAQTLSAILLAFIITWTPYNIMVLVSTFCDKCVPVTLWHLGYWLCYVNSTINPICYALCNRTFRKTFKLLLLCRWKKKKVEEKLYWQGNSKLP
Kind of assay: Allosteric activation of rat recombinant muscarinic M5 receptor expressed in CHO cells assessed as potentiation of acetylcholine-induced calcium mobilization at 10 uM after 1 hr by fluorescence assay. The class given is functional, cell-based.

Assay [2] addresses Muscarinic acetylcholine receptor M3 (Rattus norvegicus) (UniProt P08483). In words: Displacement of [3H]NMS from rat recombinant muscarinic M3 receptor expressed in CHO cells after 2 hrs by microplate scintillation counting. The class given is cell-based. On the technique in general: Loss of bound radioactivity is the signal in a displacement assay; it reports binding, not function.

Assay [3] shares this target. Kind of assay: Allosteric activation of rat recombinant muscarinic M3 receptor expressed in CHO cells assessed as potentiation of acetylcholine-induced calcium mobilization at 10 uM after 1 hr by fluorescence assay. In kind it is functional, cell-based.
For the next assay, the system named is CHO. Kind of assay: Antagonist activity at P2Y1 receptor in CHO cells assessed as calcium mobilization at 10 uM after 1 hr by fluorescence assay. The class given is functional, cell-based. To be noted: Cricetulus griseus. Background: Calcium flux is commonly read through the fluorescence of an indicator in the cells.
Assay [4] concerns the target T2, Muscarinic acetylcholine receptor M4 (Rattus norvegicus) (UniProt P08485).
T2 sequence (whole entry): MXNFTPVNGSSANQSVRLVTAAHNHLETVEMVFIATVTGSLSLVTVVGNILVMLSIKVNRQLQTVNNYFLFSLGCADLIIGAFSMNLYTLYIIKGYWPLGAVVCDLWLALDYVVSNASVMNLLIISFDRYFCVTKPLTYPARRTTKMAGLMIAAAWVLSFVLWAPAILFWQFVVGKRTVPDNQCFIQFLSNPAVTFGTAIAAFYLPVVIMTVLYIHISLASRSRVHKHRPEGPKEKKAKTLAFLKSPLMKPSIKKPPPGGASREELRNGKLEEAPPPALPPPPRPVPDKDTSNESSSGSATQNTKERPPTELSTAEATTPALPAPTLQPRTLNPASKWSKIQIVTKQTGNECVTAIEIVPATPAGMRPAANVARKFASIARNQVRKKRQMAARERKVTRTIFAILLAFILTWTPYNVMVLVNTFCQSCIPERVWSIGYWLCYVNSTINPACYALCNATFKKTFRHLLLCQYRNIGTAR
Kind of assay: Agonist activity at muscarinic M4 receptor in Sprague-Dawley rat hippocampal CA1 pyramidal neuron assessed as reversible inhibition of excitatory postsynaptic current by whole-cell electrophysiology. The class given is functional, tissue-based. The settings on record: Hippocampus.

The target of assay [5] is T2, Muscarinic acetylcholine receptor M4 (Rattus norvegicus). Kind of assay: Displacement of [3H]NMS from rat recombinant muscarinic M4 receptor expressed in CHO cells up to 30 uM after 2 hrs by microplate scintillation counting. The class given is cell-based.
Assay [6] has the same target. In words: Agonist activity at muscarinic M4 receptor in Sprague-Dawley rat hippocampal CA1 pyramidal neuron assessed as reduction of inhibitory postsynaptic current at 0.5 uM by whole-cell electrophysiology relative to control. The settings on record: Hippocampus. In kind it is functional, tissue-based.
Assay [7] has as its target T3, Muscarinic acetylcholine receptor M4 (Mus musculus) (UniProt P32211).
T3 sequence (whole entry): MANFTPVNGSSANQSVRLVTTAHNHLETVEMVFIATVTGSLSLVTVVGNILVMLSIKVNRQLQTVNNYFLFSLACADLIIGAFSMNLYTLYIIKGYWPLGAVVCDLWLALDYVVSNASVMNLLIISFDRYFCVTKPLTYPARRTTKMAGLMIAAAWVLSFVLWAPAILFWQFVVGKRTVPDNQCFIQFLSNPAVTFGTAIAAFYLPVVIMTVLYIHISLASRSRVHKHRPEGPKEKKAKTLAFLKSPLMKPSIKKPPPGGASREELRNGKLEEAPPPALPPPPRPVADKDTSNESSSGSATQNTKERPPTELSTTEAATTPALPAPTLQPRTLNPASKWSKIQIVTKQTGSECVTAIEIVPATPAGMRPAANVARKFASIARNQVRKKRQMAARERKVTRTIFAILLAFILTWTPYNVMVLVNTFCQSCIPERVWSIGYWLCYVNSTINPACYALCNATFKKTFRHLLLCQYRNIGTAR
In words: Agonist activity at muscarinic M4 receptor in wild type mouse hippocampal CA1 pyramidal neuron assessed as reduction of excitatory postsynaptic current at 100 uM by whole-cell electrophysiology relative to control. The class given is functional, tissue-based. The settings on record: Hippocampus.

In assay [8] the target is T2, Muscarinic acetylcholine receptor M4 (Rattus norvegicus). Kind of assay: Agonist activity at muscarinic M4 receptor in Sprague-Dawley rat hippocampal CA1 pyramidal neuron assessed as excitatory postsynaptic current amplitude at 5 uM by whole-cell electrophysiology relative to control. The class given is functional, tissue-based. The settings on record: Hippocampus.

Assay [9] has as its target T3, Muscarinic acetylcholine receptor M4 (Mus musculus). In words: Agonist activity at muscarinic M4 receptor in wild type mouse hippocampal CA1 pyramidal neuron assessed as increase in carbachol-induced reduction in excitatory postsynaptic current at 5 uM by whole-cell electrophysiology relative to control. In kind it is functional, tissue-based. On the set-up: scale not given: the % may be the effect or the level left. To be noted: Hippocampus.

Assay [10] addresses T2, Muscarinic acetylcholine receptor M4 (Rattus norvegicus). Kind of assay: Allosteric activation of rat recombinant muscarinic M4 receptor expressed in CHO cells assessed as […] in acetylcholine EC50 for induction of calcium mobilization at 10 uM after 1 hr by fluorescence assay. The class given is functional, cell-based.
Assay [11] has the same target. In words: Agonist activity at muscarinic M4 receptor in Sprague-Dawley rat hippocampal CA1 pyramidal neuron assessed as reduction of inhibitory postsynaptic current at 100 uM by whole-cell electrophysiology relative to control. In kind it is functional, tissue-based. The settings on record: Hippocampus.
Assay [12] has the same target. In words: Allosteric activation of rat recombinant muscarinic M4 receptor expressed in CHO cells assessed as fold decrease in acetylcholine Ki for displacement of [3H]NMS from active binding site after 2 hrs by microplate scintillation counting. The class given is cell-based.
Assay [13] concerns the target T4, Muscarinic acetylcholine receptor M4 (Rattus norvegicus, UniProt P08485).
T4 sequence (P08485 whole entry): T2 sequence (whole entry)
Kind of assay: Allosteric activation of rat recombinant muscarinic M4 receptor expressed in CHO cells assessed as potentiation of 10 uM acetylcholine-induced calcium mobilization after 1 hr by fluorescence assay. In kind it is functional, cell-based.

For assay [14], the target named is T2, Muscarinic acetylcholine receptor M4 (Rattus norvegicus). In words: Allosteric activation of rat recombinant muscarinic M4 receptor expressed in CHO cells assessed as potentiation of acetylcholine-induced increase in [35S]GTPgammaS binding at 10 um after 1 hr by equilibrium binding assay. In kind it is functional, cell-based. For orientation: Binding of GTPγS marks nucleotide exchange on a G protein.

Assay [15] can be described thus: Agonist activity at muscarinic receptor in M4 receptor knock out mouse hippocampal CA1 pyramidal neuron assessed as reduction of inhibitory postsynaptic current amplitude at 2 uM by whole-cell electrophysiology in presence of carbachol relative to control. The settings on record: Hippocampus. The class given is functional.

Activity calls are given as the source filed them. The calls are words filed in the database; no cut-off is given here.

Sequence of Muscarinic acetylcholine receptor M3 (Rattus norvegicus) (P08483 whole entry, looked up): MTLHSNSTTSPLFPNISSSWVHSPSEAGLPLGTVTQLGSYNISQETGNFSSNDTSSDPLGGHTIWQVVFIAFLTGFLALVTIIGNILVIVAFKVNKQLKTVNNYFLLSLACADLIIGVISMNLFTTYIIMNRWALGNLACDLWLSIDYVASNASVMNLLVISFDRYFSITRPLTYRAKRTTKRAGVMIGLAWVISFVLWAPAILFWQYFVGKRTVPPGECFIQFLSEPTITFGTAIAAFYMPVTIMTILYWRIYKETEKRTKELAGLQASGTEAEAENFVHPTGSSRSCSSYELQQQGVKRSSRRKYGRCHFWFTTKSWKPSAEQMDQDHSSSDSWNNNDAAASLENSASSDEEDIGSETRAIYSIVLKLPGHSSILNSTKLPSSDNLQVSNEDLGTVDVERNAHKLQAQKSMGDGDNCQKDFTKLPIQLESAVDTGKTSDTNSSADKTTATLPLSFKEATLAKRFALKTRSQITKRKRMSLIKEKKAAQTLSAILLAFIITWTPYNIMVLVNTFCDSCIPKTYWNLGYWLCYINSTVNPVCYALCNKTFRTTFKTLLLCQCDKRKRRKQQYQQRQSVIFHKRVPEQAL

In general, inhibition refers to the percentage by which the read-out fell short of the control. For orientation: EC50 means the concentration that produces a half-maximal response. In the case of `Cc1cc(C)c2c(N)c(C(=O)NCc3ccc(Cl)cc3)sc2n1`, the result (in assay [1]; in [2]; in assay [3]; in the assay on CHO; in [5]) was inactive. For the same molecule, the Activity result in [4] is “Dose-dependent effect”; in assay [8], 108%; in assay [9] it was 39.8%; in assay [12], “Dose-dependent effect”; in assay [14], 43%. Besides, the inhibition in [6] worked out at 62.2%; in [7], 18%; in assay [11], 10.9%. In assay [10], the fold change (FC) is 47. In addition, the EC50 in [13] amounted to 400 nM. Also, in assay [15], the inhibition at 2 µM turned out to be 60.2%.
